Results on eight molecules are retold here after patent US7612238B2, “Amino-propanol derivatives” (Novartis AG, priority 2002, dated 2009).

Structures can show the parent of a compound that is named as a salt.

Data set [1] deals with T1, human S1P receptors (S1P1) (Homo sapiens, UniProt P21453).
T1 construct: expressed in transfected cells
Put plainly: S1P receptor profiling, GTP[γ-35S] binding SPA, S1P1. In kind it is biochemical. The arrangement: key to S1P1 mode of action (Agon = agonist): Agon = agonist. As to conditions: for EC50: GTP[γ-35S] binding, membranes of transfected CHO or RH7777 cells. Here is the method: (§1) The compounds of formula I have binding affinity to individual human S1P receptors as determined in following assays:
(§2) Sphingosine-1-Phosphate (S1P) Receptor Profiling
(§3) Agonist activities of compounds are tested on the human S1P receptors (S1P1), (S1P3), (S1P2), (S1P4) and (S1P5). […] The assay technology used is SPA (scintillation proximity based assay). Briefly, DMSO dissolved compounds are serially diluted and added to SPA-bead (Amersham-Pharmacia) immobilised S1P receptor expressing membrane protein (10-20 μg/well) in the presence of 50 mM Hepes, 100 mM NaCl, 10 mM MgCl2, 10 μM GDP, 0.1% fat free BSA and 0.2 nM GTP [γ-^35S] (1200 Ci/mmol). After incubation in 96 well microtiterplates at RT for 120 min, unbound GTP [γ-^35S] is separated by a centrifugation step. Luminescence of SPA beads triggered by membrane bound GTP [γ-^35S] is quantified with a TOPcount plate reader (Packard). EC50s are calculated using standard curve fitting software.
Background: GTPγS resists hydrolysis and so accumulates on activated G proteins.

Data set [2] addresses T2, human S1P receptors (S1P2) (Homo sapiens, UniProt O95136).
T2 construct: expressed in transfected cells
Put plainly: S1P receptor profiling, GTP[γ-35S] binding SPA, S1P2. It counts as biochemical. As to conditions: membranes of transfected CHO or RH7777 cells. The method, then:
as §1, §2, §3

The target of data set [3] is T3, human S1P receptors (S1P3) (Homo sapiens, UniProt Q99500).
T3 construct: expressed in transfected cells
Nature of the data set: S1P receptor profiling, GTP[γ-35S] binding SPA, S1P3. In kind it is biochemical. Details: key to S1P3 mode of action (Agon = agonist): Agon = agonist. As to conditions: for EC50: GTP[γ-35S] binding, membranes of transfected CHO or RH7777 cells. The method, then:
as §1, §2, §3

For data set [4], the target named is T4, human S1P receptors (S1P5) (Homo sapiens, UniProt Q9H228).
T4 construct: expressed in transfected cells
Put plainly: S1P receptor profiling, GTP[γ-35S] binding SPA, S1P5. It counts as biochemical. Details: key to S1P5 mode of action (Agon = agonist): Agon = agonist. The following applies: for EC50: GTP[γ-35S] binding, membranes of transfected CHO or RH7777 cells; for S1P5 mode of action (Agon = agonist): column beside S1P5 EC50. Here is the method: as §1, §2, §3

Data set [5] relates to peripheral blood lymphocytes. Put plainly: In vivo: blood lymphocyte depletion. The following applies: rats, p.o. The method, then:
B. In Vivo: Blood Lymphocyte Depletion
A compound of formula I or the vehicle is administered orally by gavage to rats. Tall blood for hematological monitoring is obtained on day −1 to give the baseline individual values, and at 2, 6, 24, 48 and 72 hours after application. In this assay, the compounds of formula I deplete peripheral blood lymphocytes when administered at a dose of 0.03 to 3 mg/kg.

In data set [6] the target is T5, human S1P receptors (S1P4) (Homo sapiens, UniProt O95977).
T5 construct: expressed in transfected cells
T5 sequence (O95977 1-384): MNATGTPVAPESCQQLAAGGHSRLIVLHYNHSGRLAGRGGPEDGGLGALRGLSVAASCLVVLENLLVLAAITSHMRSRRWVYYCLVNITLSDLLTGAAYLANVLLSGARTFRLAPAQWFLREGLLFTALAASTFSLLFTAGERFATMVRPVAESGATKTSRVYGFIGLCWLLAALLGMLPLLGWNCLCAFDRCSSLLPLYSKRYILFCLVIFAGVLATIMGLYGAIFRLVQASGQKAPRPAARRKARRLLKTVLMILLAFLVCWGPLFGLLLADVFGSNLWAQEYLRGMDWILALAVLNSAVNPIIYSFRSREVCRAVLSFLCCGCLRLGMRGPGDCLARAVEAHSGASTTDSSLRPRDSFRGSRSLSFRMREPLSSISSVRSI
Put plainly: S1P receptor profiling, GTP[γ-35S] binding SPA, S1P4. Details: key to S1P4 mode of action (Agon = agonist): Agon = agonist. In kind it is biochemical. As to conditions: for EC50: GTP[γ-35S] binding, membranes of transfected CHO or RH7777 cells; for S1P4 mode of action (Agon = agonist): column beside S1P4 EC50. The method, then: as §1, §2, §3

T2 sequence (O95136 whole entry): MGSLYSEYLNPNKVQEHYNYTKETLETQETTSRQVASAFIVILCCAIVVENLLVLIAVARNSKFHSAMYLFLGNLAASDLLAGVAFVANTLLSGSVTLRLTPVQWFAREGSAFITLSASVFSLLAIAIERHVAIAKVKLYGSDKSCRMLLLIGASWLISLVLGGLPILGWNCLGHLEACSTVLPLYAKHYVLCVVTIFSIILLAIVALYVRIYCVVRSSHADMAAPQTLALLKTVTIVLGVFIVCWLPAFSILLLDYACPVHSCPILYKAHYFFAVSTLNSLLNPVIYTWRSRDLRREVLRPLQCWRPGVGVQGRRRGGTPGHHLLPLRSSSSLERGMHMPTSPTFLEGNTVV
T4 sequence (Q9H228 whole entry): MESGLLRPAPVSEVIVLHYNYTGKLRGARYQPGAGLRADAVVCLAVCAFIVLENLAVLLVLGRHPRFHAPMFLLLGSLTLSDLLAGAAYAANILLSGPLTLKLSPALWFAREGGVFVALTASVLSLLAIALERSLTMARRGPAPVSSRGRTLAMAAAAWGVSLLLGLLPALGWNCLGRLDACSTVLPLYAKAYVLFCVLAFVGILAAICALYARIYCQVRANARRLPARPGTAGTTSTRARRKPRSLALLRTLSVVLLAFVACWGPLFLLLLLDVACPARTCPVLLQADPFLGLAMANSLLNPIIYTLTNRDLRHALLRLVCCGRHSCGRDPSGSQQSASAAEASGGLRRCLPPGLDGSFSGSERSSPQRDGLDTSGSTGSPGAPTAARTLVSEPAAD
T3 sequence (Q99500 whole entry): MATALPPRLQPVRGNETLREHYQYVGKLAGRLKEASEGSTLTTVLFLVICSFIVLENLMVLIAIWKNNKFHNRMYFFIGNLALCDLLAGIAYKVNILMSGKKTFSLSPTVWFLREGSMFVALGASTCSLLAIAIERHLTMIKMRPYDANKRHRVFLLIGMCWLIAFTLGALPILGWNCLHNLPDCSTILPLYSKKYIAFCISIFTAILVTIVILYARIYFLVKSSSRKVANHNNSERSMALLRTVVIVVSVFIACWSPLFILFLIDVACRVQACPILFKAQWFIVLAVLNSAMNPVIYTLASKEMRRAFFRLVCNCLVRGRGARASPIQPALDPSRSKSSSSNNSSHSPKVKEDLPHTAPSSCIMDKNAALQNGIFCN
T1 sequence (P21453 whole entry): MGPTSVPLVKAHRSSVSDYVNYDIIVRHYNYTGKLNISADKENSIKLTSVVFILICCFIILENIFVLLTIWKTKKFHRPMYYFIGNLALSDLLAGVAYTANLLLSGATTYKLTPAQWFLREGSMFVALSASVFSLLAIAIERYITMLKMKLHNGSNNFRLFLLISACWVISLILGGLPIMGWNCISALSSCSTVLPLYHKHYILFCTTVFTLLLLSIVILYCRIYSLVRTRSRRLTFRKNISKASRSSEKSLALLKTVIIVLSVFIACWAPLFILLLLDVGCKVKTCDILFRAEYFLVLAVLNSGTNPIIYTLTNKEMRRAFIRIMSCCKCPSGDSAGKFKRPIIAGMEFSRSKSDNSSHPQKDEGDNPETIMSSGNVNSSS

What is called EC50 is the concentration needed to bring the measured effect to its halfway point. As to `COc1ccc(CCOc2ccc(CCC(N)(CO)COP(=O)(O)O)cc2)cc1F` (stereo not drawn) [Example 94], the “S1P1 mode of action (Agon = agonist)” value in data set [1] is recorded as “Agon”. The EC50 in data set [1] was 12.2 nM; in data set [2], over 10 µM; in data set [3], over 10 µM; in data set [4], 4.9 nM. Also, the “S1P5 mode of action (Agon = agonist)” value in data set [4] is reported as “Agon”.

For the molecule `C[C@](N)(CO)CCc1ccc(OCCCC(F)(F)C(F)(F)F)cc1` [Example 1, (R)-2-Amino-2-methyl-4-[4-(4,4,5,5,5-pentafluoro-pentyloxy)-phenyl]-butan-1-ol Hydrochloride], the entries for the “dose giving depletion of peripheral blood lymphocytes by more than 50%” value in data set [5] (after 6 h) and in data set [5] (after 24 h) were 0.2 mg/kg and 0.1 mg/kg, respectively.

What is called melting point is the temperature of the solid-liquid transition. The molecule `C[C@@](N)(CCc1ccc(OCCCCCF)cc1)COP(=O)(O)O` [Example 35, Mono-(R)-2-Amino-2-methyl-4-[4-(5-fluoro-pentyloxy)-phenyl]-but-2-yl phosphate] came in with a melting point of 237 to 241 °C.

On to `C[C@@](N)(CCc1ccc(OCCCC(F)(F)C(F)(F)F)cc1)COP(=O)(O)O` [Example 34, Mono-(R)-2-Amino-2-methyl-4-[4-(4,4,5,5,5-pentafluoro-pentyloxy)-phenyl]-but-2-yl phosphate], for which the melting point lay within 229 to 231 °C. Besides, in data set [1], the “S1P1 mode of action (Agon = agonist)” value is on record as “Agon” and the EC50 worked out at 16.1 nM. This molecule also showed an EC50 in data set [2] of over 10 µM. The same molecule registered an EC50 in data set [3] of over 10 µM. Further, in data set [6], a half-maximal effect (EC50) was put at 15.3 nM and the “S1P4 mode of action (Agon = agonist)” value is “Agon”. In data set [4], the concentration for a half-maximal effect (EC50) was determined as 0.9 nM and the “S1P5 mode of action (Agon = agonist)” value is on record as “Agon”.

`C[C@](N)(CO)CCc1ccc(OCCCC(F)(F)C(F)(F)F)cc1` (as salt: hydrochloride) [Example 1, (R)-2-Amino-2-methyl-4-[4-(4,4,5,5,5-pentafluoro-pentyloxy)-phenyl]-butan-1-ol Hydrochloride] returned a melting point of 186 to 189 °C.

`C[C@](N)(CO)CCc1ccc(OCCCCCF)cc1` (as salt: hydrochloride) [Example 2, (R)-2-Amino-2-methyl-4-[4-(5-fluoro-pentyloxy)-phenyl]-butan-1-ol Hydrochloride] returned a melting point of 143 to 146 °C.

With `CC(N)(CCc1ccc(OCCc2ccc3ccccc3c2)cc1)COP(=O)(O)O` (stereo not drawn) [Example 42], the “S1P1 mode of action (Agon = agonist)” value in data set [1] was “Agon”. Also, the half-maximal effective concentration (EC50) was 4.1 nM in data set [1]; over 10 µM in data set [2]; over 10 µM in data set [3]; 1.8 nM in data set [6]; 21.7 nM in data set [4]. In data set [6], the “S1P4 mode of action (Agon = agonist)” value was “Agon”. For the same molecule, the “S1P5 mode of action (Agon = agonist)” value in data set [4] is reported as “Agon”.

On to `C[C@@](N)(CCc1ccc(C(=O)CCc2ccc(-c3ccccc3)cc2)cc1)COP(=O)(O)O` [Example 50], for which the “S1P1 mode of action (Agon = agonist)” value in data set [1] is given as “Agon”. The EC50 in data set [1] was 0.3 nM; in data set [2], over 10 µM; in data set [3], 0.196 µM; in data set [6] it was over 10000 nM; in data set [4], 1.5 nM. Also, the “S1P3 mode of action (Agon = agonist)” value in data set [3] (column beside S1P3 EC50) is recorded as “Agon”. Moreover, in data set [4], the “S1P5 mode of action (Agon = agonist)” value is “Agon”.
